From US20240115470A1, “METHYL-FLUORO-HYDROXYBENZOATES IN CONSUMER PRODUCTS” (GIVAUDAN SA, priority 2020, published 2024)

How the values were obtained:
[1] = GC-odor threshold concentration (gas chromatograph with sniff port, panel of trained evaluators); settings: for odor threshold concentration compared to methyl salicylate and other methyl-fluoro-hydroxybenzoates (in words): general statement in description; for odor threshold concentration (relative): relative values, identical conditions, GC sniff port
Protocol: Definition: The odour threshold concentration is defined as the lowest concentration of the vapour of an odorant material in the air which can be detected by smell and can be measured by standard methods known in the art.
According to standard procedures known to the person skilled in the art, threshold concentrations for volatile perfumery compounds are determined on a gas chromatograph equipped with a sniff port by a panel of trained evaluators. The lowest concentration smelled by each panelist is recorded as the individual threshold concentration expressed in ng (absolute amount of compound delivered at the sniff port).
Under identical conditions the odor threshold concentration for […]

[2] = Assessment of the odor profile on smelling strips by panellists, compared to methyl salicylate; settings: for Odor description: compound @10 wt % in polyethylene glycol, freshly dipped on smelling strips, compared to methyl salicylate; for odor profile compared to methyl salicylate (summary statement) / sweet aspect of odor profile: general statement in description
Protocol: A 10 wt % solution of the purified samples of Example 1 were prepared (compound @10 wt % in polyethylene glycol). The odor profile was assessed freshly dipped on smelling strips.
Panellists have been asked to provide an odor description as compared to methyl salicylate.

[3] = Light floral cologne accord, replacement of 4 parts DPG; settings: 4 parts DPG of 1000 replaced by the compound
Excerpt: The accord above represents a light floral cologne accord, suitable for fine perfumery at a dosage of e.g. 5 weight %.
Without methyl salicylate, the accord lacks initial freshness and neutrality on the top note.
Thus an accord was obtained which compensates the effects normally achieved by the presence of methyl salicylate, thus a useful compensation of methyl salicylate is obtained.

[4] = Replacement of methyl salicylate in wintergreen flavor formulation for mouthwash; settings: 20 parts methyl salicylate replaced by 0.2 parts compound and 19.8 parts PG
Excerpt: The formulation above is a typical wintergreen type flavor suitable for the use in mouthwash products, at a dosage of, e.g. 0.3 wt %.

[5] = Replacement of methyl salicylate in wintergreen flavor formulation for toothpaste; settings: 20 parts methyl salicylate replaced by 0.2 parts compound and 19.8 parts PG
Excerpt: The formulation above is a typical wintergreen type flavor suitable for the use in toothpaste products, at a dosage of, e.g. 1.2 wt %.

Structure (SMILES) | odor threshold concentration compared to methyl salicylate and other methyl-fluoro-hydroxybenzoates (in words) [1] | odor threshold concentration (relative) [1] | Odor description [2] | odor profile compared to methyl salicylate (summary statement) [2] | sweet aspect of odor profile [2] | olfactory effect on accord [3] | flavor profile after replacement of methyl salicylate [4] | odor threshold concentration, times lower than methyl 3-fluoro-2-hydroxybenzoate ([1]; versus methyl 3-fluoro-2-hydroxybenzoate) | odor threshold concentration, times lower than methyl salicylate ([1]; versus methyl salicylate) | flavor profile after replacement of methyl salicylate [5]
COC(=O)c1c(O)cccc1F [methyl 2-fluoro-6-hydroxybenzoate] | surprisingly low | 1 | Sweetness, elements of wintergreen, | very similar to methyl salicylate | possessing these sweet aspect | – | – | – | – | –
COC(=O)c1ccccc1O [methyl 2-hydroxybenzoate, reference compound] | – | 22 | – | – | – | helps to reinforce the fresh, transparent, natural top note | – | – | – | –
COC(=O)c1cccc(F)c1O [methyl 3-fluoro-2-hydroxybenzoate, reference compound] | – | 42 | Medicinal note, technical | – | – | – | – | – | – | –
COC(=O)c1ccc(F)cc1O [methyl 4-fluoro-2-hydroxybenzoate] | surprisingly low | 4 | Wintergreen, typical methyl salicylate | very similar to methyl salicylate | possessing these sweet aspect | fresh and green natural effect on the top note | profile with very similar characteristics | more than 10 times | more than 5 times | profile with very similar characteristics
COC(=O)c1cc(F)ccc1O [methyl 5-fluoro-2-hydroxybenzoate, reference compound] | – | 36 | less sweetness, methyl salicylate character | – | – | – | – | – | – | –
